Laboratory results from publication PMC11673046, “Characterization of a Pyranose Oxidase/C-Glycoside Oxidase from Microbacterium sp. 3H14, Belonging to the Unexplored Clade II of Actinobacterial POx/CGOx” (Biomolecules, 2024).
Like-named read-outs stand apart in the source and are kept apart here.

Key:
Format in all cases: biochemical, Microbacterium sp. 3H14
MPOx [1] = tested on: MPOx
MPOx [2] = target: MPOx; remark: listed apart in the source
MPOx [3] = tested on: MPOx; remark: listed apart in the source

Structure (SMILES)	Km (MPOx [1])	Ki (MPOx [2])	Km (MPOx [3])
O=C(CCc1ccc(O)c(O)c1)c1c(O)cc(O)c([C@@H]2O[C@H](CO)[C@@H](O)[C@H](O)[C@H]2O)c1O [Aspalathin]	85 ± 14 µM	300 ± 50 µM	
OC[C@H]1OC(O)[C@H](O)[C@@H](O)[C@@H]1O (stereo partly drawn) [D-glucose]			660 ± 30 µM
OC1OC[C@@H](O)[C@H](O)[C@H]1O (stereo partly drawn) [D-xylose]			19000 ± 1000 µM
O=C(CCc1ccc(O)cc1)c1c(O)cc(O)cc1O[C@@H]1O[C@H](CO)[C@@H](O)[C@H](O)[C@H]1O [Phlorizin]	57 ± 6 µM	480 ± 50 µM	
